Results: PubChem BioAssay AID1963962 (Molecular Pharmacology Branch, DTP, NCI, 2024)

Test system: 967376-340-R-J2-PDC multicell spheroid viability
Assay: Anticancer human tumor 967376-340-R-J2-PDC patient-derived colon adenocarcinoma cell line growth inhibition [PI3K]
Settings: for IC50: curve of first compound; for viability, T/C: stronger effect = lower value
How it was run: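 Complex 3D spheroids (cancer cells + endothelial HUVEC + mesenchymal stem cells); drug pairs of targeted agent x inavolisib/alpelisib/duvelisib/copanlisib; half-log series from ~Cmax, max 10 microM if Cmax unknown; endpoint viability.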

[1] = second compound 0.0316 µM, first compound 0.0316 µM
[2] = second compound 0.0316 µM, first compound 0.1 µM
[3] = second compound 0.0316 µM, first compound 0.316 µM
[4] = second compound 0.0316 µM, first compound 1 µM
[5] = second compound 0.0316 µM, first compound 3.16 µM
[6] = second compound 0.0316 µM, first compound 10 µM
[7] = second compound 0.1 µM, first compound 0.0316 µM
[8] = second compound 0.1 µM, first compound 0.1 µM
[9] = second compound 0.1 µM, first compound 0.316 µM
[10] = second compound 0.1 µM, first compound 1 µM
[11] = second compound 0.1 µM, first compound 3.16 µM
[12] = second compound 0.1 µM, first compound 10 µM
[13] = second compound 0.316 µM, first compound 0.0316 µM
[14] = second compound 0.316 µM, first compound 0.1 µM
[15] = second compound 0.316 µM, first compound 0.316 µM
[16] = second compound 0.316 µM, first compound 1 µM
[17] = second compound 0.316 µM, first compound 3.16 µM
[18] = second compound 0.316 µM, first compound 10 µM
[19] = second compound 1 µM, first compound 0.0316 µM
[20] = second compound 1 µM, first compound 0.1 µM
[21] = second compound 1 µM, first compound 0.316 µM
[22] = second compound 1 µM, first compound 1 µM
[23] = second compound 1 µM, first compound 3.16 µM
[24] = second compound 1 µM, first compound 10 µM
[25] = second compound 3.16 µM, first compound 0.0316 µM
[26] = second compound 3.16 µM, first compound 0.1 µM
[27] = second compound 3.16 µM, first compound 0.316 µM
[28] = second compound 3.16 µM, first compound 1 µM
[29] = second compound 3.16 µM, first compound 3.16 µM
[30] = second compound 3.16 µM, first compound 10 µM
[31] = second compound 10 µM, first compound 0.0316 µM
[32] = second compound 10 µM, first compound 0.1 µM
[33] = second compound 10 µM, first compound 0.316 µM
[34] = second compound 10 µM, first compound 1 µM
[35] = second compound 10 µM, first compound 3.16 µM
[36] = second compound 10 µM, first compound 10 µM
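Further: spheroids exposed to agents for 7 days before read-out.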
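Wherever viability, T/C is given: luminescence used as surrogate of cell viability.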

Q: Which results are given for `CC(C)NCC(C(=O)N1CCN(c2ncnc3c2C(C)CC3O)CC1)c1ccc(Cl)cc1` (stereo not drawn) + CC(Nc1ncnc2nc[nH]c12)c1cc2cccc(Cl)c2c(=O)n1-c1ccccc1?
A: IC50 (second compound 0.0316 µM): > 10 µM; IC50 (second compound 0.1 µM): > 10 µM; IC50 (second compound 0.316 µM): > 10 µM; IC50 (second compound 1 µM): > 10 µM; IC50 (second compound 3.16 µM): > 10 µM; IC50 (second compound 10 µM): > 10 µM; viability, T/C [1]: 100%; viability, T/C [2]: 80.4%; viability, T/C [3]: 101%; viability, T/C [4]: 96.1%; viability, T/C [5]: 88.6%; viability, T/C [6]: 86.5%; viability, T/C [7]: 102%; viability, T/C [8]: 85%; viability, T/C [9]: 85.4%; viability, T/C [10]: 83.5%; viability, T/C [11]: 84.8%; viability, T/C [12]: 65.1%; viability, T/C [13]: 111%; viability, T/C [14]: 104%; viability, T/C [15]: 101%; viability, T/C [16]: 96.7%; viability, T/C [17]: 90.7%; viability, T/C [18]: 78.5%; viability, T/C [19]: 84.2%; viability, T/C [20]: 90.5%; viability, T/C [21]: 83.9%; viability, T/C [22]: 102%; viability, T/C [23]: 87.4%; viability, T/C [24]: 77.1%; viability, T/C [25]: 94%; viability, T/C [26]: 64.8%; viability, T/C [27]: 77.5%; viability, T/C [28]: 91.1%; viability, T/C [29]: 93.1%; viability, T/C [30]: 79.4%; viability, T/C [31]: 94.8%; viability, T/C [32]: 90.5%; viability, T/C [33]: 68.4%; viability, T/C [34]: 94.2%; viability, T/C [35]: 76.2%; viability, T/C [36]: 86.9%

Q: What does the source list for `CCN1CCN(Cc2ccc(Nc3ncc(F)c(-c4cc(F)c5nc(C)n(C(C)C)c5c4)n3)nc2)CC1` + CC(Nc1ncnc2nc[nH]c12)c1cc2cccc(Cl)c2c(=O)n1-c1ccccc1?
A: IC50 (second compound 0.0316 µM): > 1 µM; IC50 (second compound 0.1 µM): > 1 µM; IC50 (second compound 0.316 µM): > 1 µM; IC50 (second compound 1 µM): > 1 µM; IC50 (second compound 3.16 µM): > 1 µM; IC50 (second compound 10 µM): > 1 µM; viability, T/C (second compound 0.0316 µM, first compound 0.00316 µM): 93.1%; viability, T/C (second compound 0.0316 µM, first compound 0.01 µM): 95.1%; viability, T/C [1]: 91.3%; viability, T/C [2]: 73.8%; viability, T/C [3]: 88.5%; viability, T/C [4]: 70.1%; viability, T/C (second compound 0.1 µM, first compound 0.00316 µM): 103%; viability, T/C (second compound 0.1 µM, first compound 0.01 µM): 106%; viability, T/C [7]: 74.9%; viability, T/C [8]: 87.9%; viability, T/C [9]: 74.4%; viability, T/C [10]: 86.8%; viability, T/C (second compound 0.316 µM, first compound 0.00316 µM): 113%; viability, T/C (second compound 0.316 µM, first compound 0.01 µM): 95.7%; viability, T/C [13]: 100%; viability, T/C [14]: 83.9%; viability, T/C [15]: 79.5%; viability, T/C [16]: 65.1%; viability, T/C (second compound 1 µM, first compound 0.00316 µM): 111%; viability, T/C (second compound 1 µM, first compound 0.01 µM): 87%; viability, T/C [19]: 86.8%; viability, T/C [20]: 80%; viability, T/C [21]: 78.6%; viability, T/C [22]: 58.6%; viability, T/C (second compound 3.16 µM, first compound 0.00316 µM): 95.7%; viability, T/C (second compound 3.16 µM, first compound 0.01 µM): 77.7%; viability, T/C [25]: 94.5%; viability, T/C [26]: 72.6%; viability, T/C [27]: 75.9%; viability, T/C [28]: 60%; viability, T/C (second compound 10 µM, first compound 0.00316 µM): 92%; viability, T/C (second compound 10 µM, first compound 0.01 µM): 85.9%; viability, T/C [31]: 72%; viability, T/C [32]: 62%; viability, T/C [33]: 67.3%; viability, T/C [34]: 48.6%

Q: With `Cn1ncc(Cl)c1-c1cc(C(=O)NC(CN)Cc2cccc(F)c2)sc1Cl` (stereo not drawn) + CC(Nc1ncnc2nc[nH]c12)c1cc2cccc(Cl)c2c(=O)n1-c1ccccc1 as the compound, how does the IC50 (second compound 0.0316 µM) read?
A: > 10 µM

Q: What about the IC50 (second compound 0.1 µM) of the same compound?
A: > 10 µM

Q: What about the IC50 (second compound 0.316 µM) of the same compound?
A: > 10 µM

Q: What about the IC50 (second compound 1 µM) of the same compound?
A: 9.58 µM

Q: And the IC50 (second compound 3.16 µM)?
A: > 10 µM

Q: What about the IC50 (second compound 10 µM) of the same compound?
A: 6.67 µM

Q: What about the viability, T/C [1] of the same compound?
A: 99%

Q: What about the viability, T/C [2] of the same compound?
A: 95%

Q: And the viability, T/C [3]?
A: 93.6%

Q: What about the viability, T/C [4] of the same compound?
A: 91.1%

Q: And the viability, T/C [5]?
A: 66.9%

Q: What about the viability, T/C [6] of the same compound?
A: 62.5%

Q: And the viability, T/C [7]?
A: 122%

Q: And the viability, T/C [8]?
A: 97.3%

Q: And the viability, T/C [9]?
A: 104%

Q: What about the viability, T/C [10] of the same compound?
A: 86.7%

Q: What about the viability, T/C [11] of the same compound?
A: 84.8%

Q: And the viability, T/C [12]?
A: 71.1%

Q: What about the viability, T/C [13] of the same compound?
A: 87.2%

Q: And the viability, T/C [14]?
A: 97.7%

Q: What about the viability, T/C [15] of the same compound?
A: 86.9%

Q: What about the viability, T/C [16] of the same compound?
A: 81.4%

Q: What about the viability, T/C [17] of the same compound?
A: 78.3%

Q: What about the viability, T/C [18] of the same compound?
A: 64.6%

Q: And the viability, T/C [19]?
A: 85.3%

Q: What about the viability, T/C [20] of the same compound?
A: 104%

Q: What about the viability, T/C [21] of the same compound?
A: 101%

Q: And the viability, T/C [22]?
A: 86.4%

Q: And the viability, T/C [23]?
A: 79.1%

Q: And the viability, T/C [24]?
A: 48.8%

Q: What about the viability, T/C [25] of the same compound?
A: 101%

Q: What about the viability, T/C [26] of the same compound?
A: 93.7%

Q: What about the viability, T/C [27] of the same compound?
A: 104%

Q: And the viability, T/C [28]?
A: 73.5%

Q: What about the viability, T/C [29] of the same compound?
A: 73.2%

Q: And the viability, T/C [30]?
A: 53.6%

Q: What about the viability, T/C [31] of the same compound?
A: 79.4%

Q: And the viability, T/C [32]?
A: 88.5%

Q: And the viability, T/C [33]?
A: 96.7%

Q: What about the viability, T/C [34] of the same compound?
A: 86.3%

Q: What about the viability, T/C [35] of the same compound?
A: 60.3%

Q: And the viability, T/C [36]?
A: 44.4%

Q: Which results are given for `Cn1nccc1Nc1nccc(-c2ccn(C(CO)c3ccc(Cl)c(F)c3)c(=O)c2)n1` (stereo not drawn) + CC(Nc1ncnc2nc[nH]c12)c1cc2cccc(Cl)c2c(=O)n1-c1ccccc1?
A: IC50 (second compound 0.0316 µM): > 10 µM; IC50 (second compound 0.1 µM): > 10 µM; IC50 (second compound 0.316 µM): > 10 µM; IC50 (second compound 1 µM): > 10 µM; IC50 (second compound 3.16 µM): > 10 µM; IC50 (second compound 10 µM): > 10 µM; viability, T/C [1]: 97.2%; viability, T/C [2]: 115%; viability, T/C [3]: 101%; viability, T/C [4]: 102%; viability, T/C [5]: 101%; viability, T/C [6]: 114%; viability, T/C [7]: 103%; viability, T/C [8]: 105%; viability, T/C [9]: 95.9%; viability, T/C [10]: 128%; viability, T/C [11]: 128%; viability, T/C [12]: 106%; viability, T/C [13]: 107%; viability, T/C [14]: 115%; viability, T/C [15]: 114%; viability, T/C [16]: 76.1%; viability, T/C [17]: 104%; viability, T/C [18]: 110%; viability, T/C [19]: 96.2%; viability, T/C [20]: 93.3%; viability, T/C [21]: 87.8%; viability, T/C [22]: 89%; viability, T/C [23]: 99%; viability, T/C [24]: 96.3%; viability, T/C [25]: 87.5%; viability, T/C [26]: 85.3%; viability, T/C [27]: 80.1%; viability, T/C [28]: 89.3%; viability, T/C [29]: 99.7%; viability, T/C [30]: 81.4%; viability, T/C [31]: 95.7%; viability, T/C [32]: 73.4%; viability, T/C [33]: 86.3%; viability, T/C [34]: 86.7%; viability, T/C [35]: 76.2%; viability, T/C [36]: 75.3%
